The data set in a line: recombinant UMI read abundance after kanamycin selection (control-corrected) (log10(CPM+1)); higher = more efficient recombination; extreme values may be limits of the assay; sequences stand for … in AGTGCAGAGAAAATCGGCCAGTTTTCTCTGCCTGCAGTCCGCATGCCGTGGGACCCCTTGGGTTCTAACCTGTTGCCTAGATTTATGCAGCGGACTGCCTTTCTCCCAAAGTGATAAACCGG…AGGTTGGTTTCACT; site = the 11-nt donor. The procedure, abridged:
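Values are reported as log10(CPM+1), obtained by converting sequencing counts to CPM, averaging replicates and scaling by control-derived factors. The counts came from recombinant UMIs amplified by PCR across the donor–target junction. These UMIs came from a pooled Escherichia coli screen of donor and donor-binding-loop pairs for the IS621 bridge recombinase, plated with IPTG (0.07 mM) plus kanamycin or left unselected, in two replicates each.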
Turning to “AGAGAGGCATGGACCGGTTTTCCCGGTAATCCGTATTTGCT (site AGACAGGCTAG)”, the “recombinant UMI read abundance (log10)” value came out at 0.828. Take “AGAGAGGCATGGACCGGTTTTCCCGGTAATCCGTATTTGCT (site AGAGAGGCTAG)”: the “recombinant UMI read abundance (log10)” value came to 2.19.

For “AGAGAGGCATGGACCGGTTTTCCCGGTAATCCGTATTTGCT (site AGATAGGCTAG)”, the “recombinant UMI read abundance (log10)” value was 1.69. For “AGAGATGCATGGACCGGTTTTCCCGGTAATCCGTATTTGGG (site AGAGATGCTCC)”, the “recombinant UMI read abundance (log10)” value was 1.2. With “AGAGCATCATGGACCGGTTTTCCCGGTAATCCGTATTTGCT (site AGAGCATCTAG)” the figure was 2.16. On to “AGAGCATCATGGACCGGTTTTCCCGGTAATCCGTATTTGCT (site CGATCATCTAG)”, for which the “recombinant UMI read abundance (log10)” value amounted to 0. On to “AGAGCTTCATGGACCGGTTTTCCCGGTAATCCGTATTTGGA (site AGAGCTTCTTC)”, for which the “recombinant UMI read abundance (log10)” value came out at 2.31. The figure for “AGAGTATCATGGACCGGTTTTCCCGGTAATCCGTATTTGAA (site ACAGTATCTTG)” is 2.21; for “AGAGTATCATGGACCGGTTTTCCCGGTAATCCGTATTTGAA (site AGAGTATCTTT)” it is 3.15; for “AGAGTGGCATGGACCGGTTTTCCCGGTAATCCGTATTTGGT (site AGAGTGGCTAC)” it is 1.47. As for “AGAGTGGCATGGACCGGTTTTCCCGGTAATCCGTATTTGGT (site CGAGTGGCTAC)”, the “recombinant UMI read abundance (log10)” value turned out to be 0.973.

Regarding “AGAGTGGCATGGACCGGTTTTCCCGGTAATCCGTATTTGGT (site GGAGTGGCTAC)”, the “recombinant UMI read abundance (log10)” value was found to be 0.101. Regarding “AGAGTGGCATGGACCGGTTTTCCCGGTAATCCGTATTTGGT (site TGAGTGGCTAC)”, the “recombinant UMI read abundance (log10)” value was 0.546. As to “AGATATCCATGGACCGGTTTTCCCGGTAATCCGTATTTGAT (site AGATATCCTAT)”, the “recombinant UMI read abundance (log10)” value came to 1.12. The figure for “AGATCAGCATGGACCGGTTTTCCCGGTAATCCGTATTTGCT (site AGATCAGCTAG)” is 2.68; for “AGATCAGCATGGACCGGTTTTCCCGGTAATCCGTATTTGCT (site CGATCATCTAG)” it is 0; for “AGATCAGCATGGACCGGTTTTCCCGGTAATCCGTATTTGGG (site AGATCAGCTCC)” it is 0.224. With “AGATCAGCATGGACCGGTTTTCCCGGTAATCCGTATTTGGG (site AGCTCAGCTCC)” the figure was 0.00476. The figure for “AGATCAGCATGGACCGGTTTTCCCGGTAATCCGTATTTGGG (site AGGTCAGCTCC)” is 0.014; for “AGATCAGCATGGACCGGTTTTCCCGGTAATCCGTATTTGGG (site AGTTCAGCTCC)” it is 0.296; for “AGATCCTCATGGACCGGTTTTCCCGGTAATCCGTATTTGTT (site AGATCCTCTAA)” it is 2.08.

As for “AGATCGACATGGACCGGTTTTCCCGGTAATCCGTATTTGTT (site AGATCGACTAA)”, the “recombinant UMI read abundance (log10)” value was determined as 0.688.

Consider “AGATCGACATGGACCGGTTTTCCCGGTAATCCGTATTTGTT (site CGATCGACTAA)”, for which the “recombinant UMI read abundance (log10)” value was determined as 0.0123. In the case of “AGATCGACATGGACCGGTTTTCCCGGTAATCCGTATTTGTT (site GGATCGACTAA)”, the “recombinant UMI read abundance (log10)” value came to 0.012. Take “AGATCGACATGGACCGGTTTTCCCGGTAATCCGTATTTGTT (site TGATCGACTAA)”: the “recombinant UMI read abundance (log10)” value came out at 0.00951.

For “AGATGCGCATGGACCGGTTTTCCCGGTAATCCGTATTTGAG (site AGATGCGCTCT)”, the “recombinant UMI read abundance (log10)” value was found to be 1.86.

Consider “AGATGGGCATGGACCGGTTTTCCCGGTAATCCGTATTTGGA (site AGATGGGCTTC)”, for which the “recombinant UMI read abundance (log10)” value amounted to 1.22. For the sequence “AGATTATCATGGACCGGTTTTCCCGGTAATCCGTATTTGCT (site AGATTATCTAG)”, the “recombinant UMI read abundance (log10)” value worked out at 2.71. Consider “AGATTATCATGGACCGGTTTTCCCGGTAATCCGTATTTGCT (site CGATCATCTAG)”, for which the “recombinant UMI read abundance (log10)” value was determined as 0.

The values above are taken from the supplement of paper PMC11208160.
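Also: IS621 bridge recombinase in Escherichia coli cells against a fixed T5 target plasmid.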
